Assay [1] has as its target Myosin light chain kinase family member 4 (Homo sapiens, UniProt Q86YV6). As to the kind of experiment: Selectivity interaction (Enzymatic assay) EUB0001550a MYLK4.
The next assay addresses Misshapen-like kinase 1 (Homo sapiens, UniProt Q8N4C8). As to the kind of experiment: Selectivity interaction (KinomeScan (DiscoverX)) EUB0000695a MINK1. Conditions: at 100 nM.
The target of assay [2] is Peroxisome proliferator-activated receptor gamma (Homo sapiens) (UniProt P37231). As to the kind of experiment: Selectivity interaction (Eurofins CEREP Diversity Profile (receptors and ion channels)) EUB0000279b PPARG. The following applies: at 10 µM.
Assay [3] addresses Serine/threonine-protein kinase pim-2 (Homo sapiens, UniProt Q9P1W9). Nature of the assay: Selectivity interaction (KinomeScan (DiscoverX)) EUB0000045b PIM2.
Assay [4] has as its target [Pyruvate dehydrogenase (acetyl-transferring)] kinase isozyme 1, mitochondrial (Homo sapiens, UniProt Q15118). Nature of the assay: Selectivity interaction (SelectScreen profiling (Invitrogen)) EUB0000607a PDK1. Conditions: at 2 µM.
In assay [5] the target is Cyclin-dependent kinase 17 (Homo sapiens) (UniProt Q00537). As to the kind of experiment: Selectivity interaction (ActivX KiNativ screen (kinase selectivity in THP-1 cell lysates)) EUB0000639a CDK17. It is filed as subcellular. Conditions: lysate.
Assay [6] has as its target Homeodomain-interacting protein kinase 2 (Homo sapiens, UniProt Q9H2X6). Nature of the assay: Selectivity interaction (KinomeScan (DiscoverX)) EUB0000229b HIPK2. The following applies: at 10 µM.
The target in assay [7] is Transcription intermediary factor 1-beta (Homo sapiens) (UniProt Q13263). Nature of the assay: Selectivity interaction (Human bromodomain panel (DSF assay)) EUB0000233b TRIM28. Background: DSF heats the sample and reads unfolding from a dye or from intrinsic fluorescence.
Assay [8] concerns the target Bromodomain-containing protein 8 (Homo sapiens) (UniProt Q9H0E9). Nature of the assay: Selectivity interaction (Human bromodomain panel (DSF assay)) EUB0000233b BRD8.
The target in assay [9] is T1, Interleukin-1 receptor-associated kinase 3 (Homo sapiens) (UniProt Q9Y616).
T1 sequence (whole entry): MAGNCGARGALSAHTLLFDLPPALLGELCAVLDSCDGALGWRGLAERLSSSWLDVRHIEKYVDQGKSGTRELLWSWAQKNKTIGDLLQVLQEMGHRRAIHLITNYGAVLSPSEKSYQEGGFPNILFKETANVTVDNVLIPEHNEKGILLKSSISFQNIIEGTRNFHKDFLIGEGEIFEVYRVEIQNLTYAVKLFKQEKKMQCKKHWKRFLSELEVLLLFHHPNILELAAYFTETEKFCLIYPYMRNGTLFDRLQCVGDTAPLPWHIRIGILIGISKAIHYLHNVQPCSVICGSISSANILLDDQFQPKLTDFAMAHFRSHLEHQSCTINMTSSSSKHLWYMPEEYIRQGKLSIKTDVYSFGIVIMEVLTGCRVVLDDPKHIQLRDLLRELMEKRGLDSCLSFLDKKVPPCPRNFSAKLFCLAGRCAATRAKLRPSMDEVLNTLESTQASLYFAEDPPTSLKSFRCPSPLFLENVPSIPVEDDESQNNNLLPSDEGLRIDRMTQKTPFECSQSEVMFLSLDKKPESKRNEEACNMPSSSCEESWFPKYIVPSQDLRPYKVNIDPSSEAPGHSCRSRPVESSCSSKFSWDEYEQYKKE
As to the kind of experiment: Selectivity interaction (KinomeScan (DiscoverX)) EUB0000595a IRAK3. The following applies: at 10 µM.

The target of assay [10] is LIM domain kinase 2 (Homo sapiens) (UniProt P53671). Nature of the assay: Selectivity interaction (KinomeScan (DiscoverX)) EUB0001619a LIMK2. Conditions: at 1 µM.
In assay [11] the target is T2, Eukaryotic elongation factor 2 kinase (Homo sapiens) (UniProt O00418).
T2 sequence (whole entry): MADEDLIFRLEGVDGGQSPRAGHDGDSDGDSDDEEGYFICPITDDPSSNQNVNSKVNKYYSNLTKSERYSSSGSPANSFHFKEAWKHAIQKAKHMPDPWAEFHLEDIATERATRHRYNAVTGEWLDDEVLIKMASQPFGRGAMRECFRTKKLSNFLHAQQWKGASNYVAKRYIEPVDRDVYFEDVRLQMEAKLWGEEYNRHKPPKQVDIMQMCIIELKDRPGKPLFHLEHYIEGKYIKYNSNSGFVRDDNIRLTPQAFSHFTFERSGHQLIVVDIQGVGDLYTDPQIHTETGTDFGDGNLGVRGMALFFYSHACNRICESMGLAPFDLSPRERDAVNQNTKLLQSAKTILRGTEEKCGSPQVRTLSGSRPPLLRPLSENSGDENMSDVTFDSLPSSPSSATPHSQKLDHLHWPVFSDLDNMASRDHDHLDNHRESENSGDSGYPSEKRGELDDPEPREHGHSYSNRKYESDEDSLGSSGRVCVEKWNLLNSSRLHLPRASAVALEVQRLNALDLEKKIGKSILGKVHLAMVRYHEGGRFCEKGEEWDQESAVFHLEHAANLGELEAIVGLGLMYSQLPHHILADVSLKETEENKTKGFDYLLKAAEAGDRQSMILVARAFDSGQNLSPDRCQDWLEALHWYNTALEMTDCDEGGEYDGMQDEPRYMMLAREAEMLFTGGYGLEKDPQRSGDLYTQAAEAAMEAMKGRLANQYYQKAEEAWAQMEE
As to the kind of experiment: Selectivity interaction (Kinase panel (KiNativ target engagement assay in Jurkat cells)) EUB0001635a EEF2K. It is filed as cell-based. The following applies: Selectivity number of off-targets 0.0, Selectivity number of targets 233.0, Source Knowledge https://www.sciencedirect.com/science/article/pii/S2451945619300674?via%3Dihub, at 1 µM.

Assay [12] deals with T3, Serine/threonine-protein kinase ULK3 (Homo sapiens) (UniProt Q6PHR2).
T3 sequence (whole entry): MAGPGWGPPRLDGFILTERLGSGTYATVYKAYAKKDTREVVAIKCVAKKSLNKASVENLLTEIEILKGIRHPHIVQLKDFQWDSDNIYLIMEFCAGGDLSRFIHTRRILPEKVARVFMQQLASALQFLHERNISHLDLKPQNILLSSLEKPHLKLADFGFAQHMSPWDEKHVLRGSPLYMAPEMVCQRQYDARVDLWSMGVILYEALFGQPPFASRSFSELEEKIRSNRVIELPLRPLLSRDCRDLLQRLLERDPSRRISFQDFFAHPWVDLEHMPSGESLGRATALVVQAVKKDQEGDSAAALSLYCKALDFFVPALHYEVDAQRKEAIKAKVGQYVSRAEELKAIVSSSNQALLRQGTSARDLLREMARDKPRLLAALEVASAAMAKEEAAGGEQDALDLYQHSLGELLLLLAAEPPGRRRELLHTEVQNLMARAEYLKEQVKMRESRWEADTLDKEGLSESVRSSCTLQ
As to the kind of experiment: Selectivity interaction (Kinase panel (KiNativ target engagement assay in Jurkat cells)) EUB0001635a ULK3. It is filed as cell-based. The following applies: at 1 µM.

Assay [13] concerns the target Serine/threonine-protein kinase PLK2 (Homo sapiens, UniProt Q9NYY3). Nature of the assay: Selectivity interaction (KinomeScan (DiscoverX)) EUB0000618a PLK2. Conditions: at 10 µM.

Each structure is given as a SMILES string.

Cyclin-dependent kinase 17 (Homo sapiens), sequence (Q00537 whole entry, looked up): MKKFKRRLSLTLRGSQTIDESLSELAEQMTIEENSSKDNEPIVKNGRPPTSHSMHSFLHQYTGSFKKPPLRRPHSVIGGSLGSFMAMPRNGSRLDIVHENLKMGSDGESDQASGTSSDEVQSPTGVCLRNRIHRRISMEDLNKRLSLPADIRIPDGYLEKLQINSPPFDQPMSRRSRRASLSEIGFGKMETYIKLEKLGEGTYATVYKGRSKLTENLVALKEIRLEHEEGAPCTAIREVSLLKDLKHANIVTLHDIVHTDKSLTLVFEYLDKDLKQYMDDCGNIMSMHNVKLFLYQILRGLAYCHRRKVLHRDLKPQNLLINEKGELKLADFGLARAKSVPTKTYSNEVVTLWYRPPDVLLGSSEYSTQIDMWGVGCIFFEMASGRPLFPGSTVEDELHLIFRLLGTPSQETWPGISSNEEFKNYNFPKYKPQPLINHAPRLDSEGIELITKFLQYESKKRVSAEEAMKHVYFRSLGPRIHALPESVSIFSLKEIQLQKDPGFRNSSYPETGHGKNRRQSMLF
Serine/threonine-protein kinase pim-2, sequence (Q9P1W9 whole entry, looked up): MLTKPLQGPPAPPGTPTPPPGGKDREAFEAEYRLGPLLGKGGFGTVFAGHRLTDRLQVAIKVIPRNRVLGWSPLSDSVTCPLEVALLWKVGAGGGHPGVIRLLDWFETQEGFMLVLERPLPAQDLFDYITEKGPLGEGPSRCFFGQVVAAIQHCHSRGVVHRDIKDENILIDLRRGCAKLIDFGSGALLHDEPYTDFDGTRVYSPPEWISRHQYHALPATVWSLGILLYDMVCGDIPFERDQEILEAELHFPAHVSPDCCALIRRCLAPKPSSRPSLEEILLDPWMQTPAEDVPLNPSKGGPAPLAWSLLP
Homeodomain-interacting protein kinase 2, sequence (Q9H2X6 whole entry, looked up): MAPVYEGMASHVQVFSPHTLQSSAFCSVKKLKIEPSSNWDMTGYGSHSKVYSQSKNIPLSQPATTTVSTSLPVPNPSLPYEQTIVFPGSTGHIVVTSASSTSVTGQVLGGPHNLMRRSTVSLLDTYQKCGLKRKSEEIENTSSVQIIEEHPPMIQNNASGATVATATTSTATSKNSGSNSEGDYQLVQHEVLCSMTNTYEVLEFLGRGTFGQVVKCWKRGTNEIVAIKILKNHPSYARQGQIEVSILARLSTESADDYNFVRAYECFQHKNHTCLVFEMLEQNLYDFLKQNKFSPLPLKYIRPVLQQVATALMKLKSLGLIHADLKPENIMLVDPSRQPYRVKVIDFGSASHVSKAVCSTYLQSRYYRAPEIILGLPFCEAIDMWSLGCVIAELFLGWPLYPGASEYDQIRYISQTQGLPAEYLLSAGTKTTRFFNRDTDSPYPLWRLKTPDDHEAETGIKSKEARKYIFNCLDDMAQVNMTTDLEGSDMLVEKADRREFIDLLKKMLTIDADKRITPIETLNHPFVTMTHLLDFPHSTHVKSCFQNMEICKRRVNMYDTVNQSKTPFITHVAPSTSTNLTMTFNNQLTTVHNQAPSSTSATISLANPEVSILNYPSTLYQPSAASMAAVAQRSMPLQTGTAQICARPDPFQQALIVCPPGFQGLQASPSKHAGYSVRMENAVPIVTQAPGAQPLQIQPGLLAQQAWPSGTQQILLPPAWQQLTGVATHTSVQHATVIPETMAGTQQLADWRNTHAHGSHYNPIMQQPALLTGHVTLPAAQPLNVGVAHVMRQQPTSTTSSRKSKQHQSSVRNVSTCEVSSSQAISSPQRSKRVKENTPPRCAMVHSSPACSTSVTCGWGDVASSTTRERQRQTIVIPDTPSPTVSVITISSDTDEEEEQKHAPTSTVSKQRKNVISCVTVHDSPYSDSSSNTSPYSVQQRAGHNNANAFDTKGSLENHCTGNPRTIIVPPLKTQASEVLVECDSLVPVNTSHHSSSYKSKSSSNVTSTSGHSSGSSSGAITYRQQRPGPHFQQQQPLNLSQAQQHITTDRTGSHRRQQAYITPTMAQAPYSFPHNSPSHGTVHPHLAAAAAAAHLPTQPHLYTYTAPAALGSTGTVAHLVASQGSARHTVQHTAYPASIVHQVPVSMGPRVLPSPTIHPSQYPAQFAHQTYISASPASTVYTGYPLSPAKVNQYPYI
Serine/threonine-protein kinase PLK2, sequence (Q9NYY3 whole entry, looked up): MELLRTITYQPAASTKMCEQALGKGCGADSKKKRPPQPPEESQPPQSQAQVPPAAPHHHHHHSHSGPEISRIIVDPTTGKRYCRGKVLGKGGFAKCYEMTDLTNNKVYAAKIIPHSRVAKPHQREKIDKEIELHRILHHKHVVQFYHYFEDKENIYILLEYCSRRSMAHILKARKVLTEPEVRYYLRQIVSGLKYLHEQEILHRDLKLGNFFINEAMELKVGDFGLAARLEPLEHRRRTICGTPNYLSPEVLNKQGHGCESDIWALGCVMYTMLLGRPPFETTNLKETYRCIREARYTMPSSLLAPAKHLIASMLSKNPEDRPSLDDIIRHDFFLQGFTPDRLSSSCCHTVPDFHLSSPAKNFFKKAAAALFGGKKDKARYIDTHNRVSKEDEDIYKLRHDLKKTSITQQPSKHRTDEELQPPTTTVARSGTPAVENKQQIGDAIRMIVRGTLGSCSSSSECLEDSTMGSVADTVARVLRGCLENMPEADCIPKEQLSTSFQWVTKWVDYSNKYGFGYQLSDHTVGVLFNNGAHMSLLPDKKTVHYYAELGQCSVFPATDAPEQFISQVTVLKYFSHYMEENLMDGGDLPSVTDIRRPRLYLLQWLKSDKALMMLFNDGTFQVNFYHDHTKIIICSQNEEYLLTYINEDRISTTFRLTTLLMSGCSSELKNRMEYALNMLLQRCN
Myosin light chain kinase family member 4, sequence (Q86YV6 whole entry): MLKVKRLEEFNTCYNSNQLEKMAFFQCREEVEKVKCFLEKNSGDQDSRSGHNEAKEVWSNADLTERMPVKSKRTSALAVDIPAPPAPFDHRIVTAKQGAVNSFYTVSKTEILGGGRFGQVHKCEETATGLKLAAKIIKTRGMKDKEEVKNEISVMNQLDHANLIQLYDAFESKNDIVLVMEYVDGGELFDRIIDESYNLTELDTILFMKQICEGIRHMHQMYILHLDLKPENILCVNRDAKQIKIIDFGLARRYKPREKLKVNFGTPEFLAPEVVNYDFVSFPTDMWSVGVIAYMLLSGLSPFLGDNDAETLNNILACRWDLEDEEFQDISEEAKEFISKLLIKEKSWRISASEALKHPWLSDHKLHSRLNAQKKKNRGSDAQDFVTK
Peroxisome proliferator-activated receptor gamma (Homo sapiens), sequence (P37231 whole entry): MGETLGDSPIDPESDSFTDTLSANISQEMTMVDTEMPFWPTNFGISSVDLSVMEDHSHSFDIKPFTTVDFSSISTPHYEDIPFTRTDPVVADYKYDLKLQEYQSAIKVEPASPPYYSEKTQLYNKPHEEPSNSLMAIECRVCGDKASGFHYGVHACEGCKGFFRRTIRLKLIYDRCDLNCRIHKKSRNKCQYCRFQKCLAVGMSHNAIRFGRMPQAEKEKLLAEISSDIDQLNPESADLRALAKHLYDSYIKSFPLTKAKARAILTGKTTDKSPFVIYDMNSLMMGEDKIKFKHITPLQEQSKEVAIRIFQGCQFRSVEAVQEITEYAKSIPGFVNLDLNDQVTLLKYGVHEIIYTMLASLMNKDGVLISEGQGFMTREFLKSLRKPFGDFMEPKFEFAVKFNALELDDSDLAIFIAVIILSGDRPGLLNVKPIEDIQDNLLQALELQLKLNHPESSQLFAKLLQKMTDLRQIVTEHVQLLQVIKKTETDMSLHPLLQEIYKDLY
Misshapen-like kinase 1, sequence (Q8N4C8 whole entry, looked up): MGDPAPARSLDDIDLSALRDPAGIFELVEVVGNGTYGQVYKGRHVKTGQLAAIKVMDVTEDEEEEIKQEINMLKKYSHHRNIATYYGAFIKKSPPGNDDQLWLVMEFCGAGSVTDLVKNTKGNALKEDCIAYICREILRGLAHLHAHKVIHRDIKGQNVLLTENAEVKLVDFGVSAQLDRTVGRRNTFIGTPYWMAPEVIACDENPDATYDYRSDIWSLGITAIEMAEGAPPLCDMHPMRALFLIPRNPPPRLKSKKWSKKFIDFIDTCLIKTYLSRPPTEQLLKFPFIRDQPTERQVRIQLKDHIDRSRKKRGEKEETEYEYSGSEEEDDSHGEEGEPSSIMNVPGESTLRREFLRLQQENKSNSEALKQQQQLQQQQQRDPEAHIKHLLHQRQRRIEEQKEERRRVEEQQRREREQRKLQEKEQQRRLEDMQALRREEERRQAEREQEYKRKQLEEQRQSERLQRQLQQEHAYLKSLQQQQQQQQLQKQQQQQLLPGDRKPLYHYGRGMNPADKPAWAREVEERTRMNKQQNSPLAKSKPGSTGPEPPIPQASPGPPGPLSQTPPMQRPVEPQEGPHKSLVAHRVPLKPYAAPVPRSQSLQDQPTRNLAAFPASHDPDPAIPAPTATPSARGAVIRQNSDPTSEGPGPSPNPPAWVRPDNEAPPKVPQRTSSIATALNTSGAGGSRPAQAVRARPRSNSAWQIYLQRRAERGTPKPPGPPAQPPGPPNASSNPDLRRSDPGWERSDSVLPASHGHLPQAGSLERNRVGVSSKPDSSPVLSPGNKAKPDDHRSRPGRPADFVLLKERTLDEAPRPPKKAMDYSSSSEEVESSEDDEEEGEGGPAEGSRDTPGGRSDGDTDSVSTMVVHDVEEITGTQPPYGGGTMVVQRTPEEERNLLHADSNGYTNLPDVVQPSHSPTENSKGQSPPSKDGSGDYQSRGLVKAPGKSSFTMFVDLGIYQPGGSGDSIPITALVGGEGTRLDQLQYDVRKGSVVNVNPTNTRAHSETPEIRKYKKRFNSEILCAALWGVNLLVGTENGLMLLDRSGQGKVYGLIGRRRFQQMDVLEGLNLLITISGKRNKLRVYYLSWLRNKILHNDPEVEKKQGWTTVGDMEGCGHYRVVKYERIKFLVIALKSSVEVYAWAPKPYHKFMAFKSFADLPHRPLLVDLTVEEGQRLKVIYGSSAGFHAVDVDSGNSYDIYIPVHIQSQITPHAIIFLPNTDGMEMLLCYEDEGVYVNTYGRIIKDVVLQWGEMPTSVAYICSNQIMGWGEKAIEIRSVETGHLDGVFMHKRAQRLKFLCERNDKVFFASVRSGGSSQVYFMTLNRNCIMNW

Turning to `CN(C)CC#Cc1ccc2[nH]c3c(c2c1)-c1nc(N)ncc1CCC3`, the IC50 (usually the concentration that inhibits the measured activity by half) in [1] is 66 nM.
On Misshapen-like kinase 1, `Cc1cc(F)c(C(=O)Nc2cccc(-c3nncn3C(C)C)n2)cc1-n1cnc(C2CC2)c1` gave a % of control of 83%.
Turning to `CC(=O)c1cc(-c2ccccc2OCC2CC2)c2ncccn12`, the % of control in assay [2] is 105%.
Regarding `C=CC(=O)Nc1cc(-n2c(=O)ccc3cnc4ccc(-c5ccc(NS(C)(=O)=O)cc5)cc4c32)ccc1C`, the % of control in [3] (at 1 µM) stood at 66%; in [3] (at 10 µM), 100%.
`CNC(=O)Nc1ccc(-c2nc(N3CC4CCC(C3)O4)c3cnn(C4CCC5(CC4)OCCO5)c3n2)cc1`: in assay [4], the % of inhibition amounted to 3%.
For the compound `CC[C@@H]1[C@H](F)C(=O)N[C@@H]1COc1nccc2cc(C(N)=O)c(OC)cc12` [ZIMLOVISERTIB], the % of inhibition in assay [5] (at 0.01 µM) is -4.8%; in assay [5] (at 0.04 µM) it was -2.9%; in assay [5] (at 0.2 µM) it was 2.8%; in assay [5] (at 1 µM) it was 6%; in assay [5] (at 5 µM), 5.6%.
Take `COc1cc(N(C)c2ccnc3ccc(C(F)(F)F)cc23)cc(OC)c1OC`: the % binding in assay [6] is 100%.
On to `CN(C)CCCOc1ccc(-c2cc(NCCCn3cccn3)nc(S(C)(=O)=O)n2)cc1`, for which the dTM in assay [7] and in assay [8] was less than 2 K in each case.
With `COCC(=O)NC/C=C/c1ccc2ncnc(Nc3ccc(Oc4ccc(C)nc4)c(C)c3)c2c1` [CP-724714], the % of control in assay [9] was found to be 82%.
As to `N#Cc1cccc(-c2c[nH]c3ncnc(N4CCOCC4)c23)c1`, in [10], the % of control turned out to be 96%.
`C=CC(=O)Nc1ccc(C(=O)Nc2[nH]nc3c2CN(C(=O)N[C@H](CN(C)C)c2ccccc2)C3(C)C)cc1`: the % of engagement was -14.2% in [11]; -7.1% in [12] (Selectivity number of off-targets 0.0, Selectivity number of targets 233.0, Source Knowledge https://www.sciencedirect.com/science/article/pii/S2451945619300674?via%3Dihub); -1.1% in assay [12].
`O[C@H]1CC[C@H](Nc2ncc3nc(Nc4c(F)cc(F)cc4F)n([C@H]4CCOC4)c3n2)CC1`: the % of control in assay [13] came to 100%.

The values above are taken from ChEMBL document CHEMBL5465560, “Selectivity Literature for EUbOPEN Chemogenomic Library” (2024).
